According to PubChem BioAssay (NCI):
Several values for one entry are separate records, joined by “and”; a condition that tells them apart may be missing. Equal entries are not always repeated.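 Cultured in 96-well plates, cells were exposed to test compound for 48 hours across five concentrations. GI50: concentration for 50% inhibition of growth. TGI marks complete inhibition of growth.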

Experiments:
Experiment in all cases: NCI anticancer screen, dose series, 48 h
HCT-15 colon = test system: HCT-15 colon
DU-145 prostate = test system: DU-145 prostate
NCI-H226 lung = test system: NCI-H226 lung
HOP-92 NSCLC = test system: HOP-92 NSCLC
SK-OV-3 ovarian = test system: SK-OV-3 ovarian
OVCAR-4 ovarian = test system: OVCAR-4 ovarian
KM12 colon = test system: KM12 colon
RXF 393 renal = test system: RXF 393 renal
T-47D breast = test system: T-47D breast
UACC-257 melanoma = test system: UACC-257 melanoma

Structure (SMILES) | GI50 (HCT-15 colon) | TGI (HCT-15 colon) | GI50 (DU-145 prostate) | TGI (DU-145 prostate) | GI50 (NCI-H226 lung) | TGI (NCI-H226 lung) | GI50 (HOP-92 NSCLC) [µM] | TGI (HOP-92 NSCLC) | GI50 (SK-OV-3 ovarian) | TGI (SK-OV-3 ovarian) | GI50 (OVCAR-4 ovarian) | TGI (OVCAR-4 ovarian) | GI50 (KM12 colon) | TGI (KM12 colon) | GI50 (RXF 393 renal) | TGI (RXF 393 renal) | GI50 (T-47D breast) | TGI (T-47D breast) | GI50 (UACC-257 melanoma) | TGI (UACC-257 melanoma)
O=c1[nH]c2ccccc2n1C1CCN(CCCC(c2ccc(F)cc2)c2ccc(F)cc2)CC1 | 1.77 µM | 3.95 µM and 19.7 µM | 1.73 µM and 13.7 µM | 3.24 µM and 28.5 µM | 1.51 µM and 6.66 µM | 2.97 µM and 20.3 µM | 0.252 | 1.71 µM and 14 µM | 1.56 µM | 3.12 µM and 24.9 µM | 1.23 µM | 2.47 µM and 22 µM | 1.76 µM and 6.97 µM | 3.4 µM and 22.1 µM | 1.17 µM and 1.93 µM | 2.44 µM and 5.8 µM | 1.06 µM and 4.22 µM | 2.67 µM and 17.7 µM | 1.58 µM and 2.83 µM | 3.24 µM and 7.83 µM
CC(=O)N(O)c1ccc(/C=C/c2ccccc2)cc1 | 2.9 µM | > 100 µM | 0.278 µM | 2.52 µM | 0.0656 µM | 0.386 µM | 1.14 | 3.65 µM | 2.04 µM | 8.77 µM | 2.91 µM | > 82.1 µM | 2.99 µM | 28.3 µM | 0.539 µM | 1.9 µM | 0.24 µM | > 41.8 µM | 1.23 µM | 5.17 µM
CCn1ccnc1C(=O)/C=C/c1ccc(CC(=O)Nc2ccc(F)cc2)cc1 | 1.93 µM | 8.96 µM | 4.45 µM | > 16.7 µM | 3.61 µM | 9.53 µM | 3.32 | 8.83 µM | 6.97 µM | > 16.7 µM | 3.31 µM | > 16.7 µM | 3.06 µM | 8.33 µM | 3.39 µM | 8.66 µM | 3.79 µM | > 16.7 µM | 14 µM | > 16.7 µM
COc1cc2c(cc1NC(=O)C(Cl)Cl)-c1ccc(NC(=O)C(Cl)Cl)cc1C2 | 0.354 µM | 1.94 µM | 0.265 µM | 0.804 µM | 6.04 µM | 17.1 µM | 1.15 | 3.54 µM | 6.67 µM | 20.6 µM | 1.04 µM | 5.56 µM | 0.336 µM | 1.17 µM | 0.429 µM | 1.66 µM | 0.707 µM | 8.6 µM | 1.02 µM | 3.54 µM
O=S(=O)(O)c1ccc2cc3nn(-c4ccc(/C=C/c5ccc(-n6nc7cc8ccc(S(=O)(=O)O)cc8cc7n6)cc5S(=O)(=O)O)c(S(=O)(=O)O)c4)nc3cc2c1 | 6.21 µM | > 100 µM | > 100 µM | > 100 µM | > 100 µM | > 100 µM | 88.7 | > 100 µM | > 100 µM | > 100 µM | > 100 µM | > 100 µM | 30.4 µM | > 100 µM | > 100 µM | > 100 µM | > 100 µM | > 100 µM | > 100 µM | > 100 µM
COc1cc(/C=C/C(=O)O[C@H]2[C@H](O[C@@H]3O[C@@H](C)[C@H](O)[C@@H](O)[C@H]3O)[C@@H](O)[C@H](OCCc3ccc(O)c(O)c3)O[C@@H]2COC2OCC(O)(CO)C2O)ccc1O (stereo partly drawn) | > 100 µM | > 100 µM | > 100 µM | > 100 µM | > 100 µM | > 100 µM | 0.402 | > 100 µM | > 100 µM | > 100 µM | > 100 µM | > 100 µM | > 100 µM | > 100 µM | > 100 µM | > 100 µM | > 100 µM | > 100 µM | > 100 µM | > 100 µM
COC1=C(OC)C(=O)C(CCCCCCCCCCO)=C(C)C1=O | 8.81 µM | 24.5 µM | 7.77 µM | 22.4 µM | 13.8 µM | 29.9 µM | 2.53 | 9.84 µM | 15.7 µM | 29.2 µM | 1.29 µM | 2.6 µM | 15.1 µM | 58.1 µM | 10.1 µM | 23.9 µM | 2.44 µM | 7.43 µM | 1.84 µM | 4.48 µM
S=C(NCc1ccc2c(c1)OCO2)N1CCN(c2ncnc3c2oc2ccccc23)CC1 | > 100 µM | > 100 µM | > 100 µM | > 100 µM | 3.25 µM | > 100 µM | 14.3 | > 100 µM | > 100 µM | > 100 µM | 0.451 µM | > 100 µM | 36.7 µM | > 100 µM | > 100 µM | > 100 µM | 2.3 µM | > 100 µM | 1.71 µM | > 33.7 µM
Cc1ccc(S(=O)(=O)NC(=O)OC23COCN2COC3)cc1 | – | > 100 µM | – | > 100 µM | – | > 100 µM | – | > 100 µM | – | > 100 µM | – | > 100 µM | – | > 100 µM | – | > 100 µM | – | > 100 µM | – | > 100 µM
CC1(C)[C@H](O)[C@H](F)C[C@@]2(C)Oc3ccc(C(=O)Nc4ccc5c(c4)NC(=O)C54CCN(CCCCC#N)CC4)cc3C[C@H]12 | 5.43 µM and 1.59 µM | 19.1 µM | – | 17.3 µM | 2.91 µM | 17.4 µM | 0.00986 | 3.28 µM and 8.09 µM | 2.1 µM and 0.341 µM | 3.54 µM | 4.31 µM and 6.31 µM | 20.4 µM | 0.463 µM and 0.707 µM | 9.79 µM and 11.9 µM | 0.00279 µM | – | 3.76 µM and 2.49 µM | 26.1 µM | 1.57 µM | 5.02 µM
c1ccc(CN2COc3c(ccc4c5c(ccc34)CN(Cc3ccccc3)CO5)C2)cc1 | – | > 100 µM | – | > 100 µM | – | > 100 µM | – | > 100 µM | – | > 100 µM | – | > 100 µM | – | > 100 µM | – | > 100 µM | – | > 100 µM | – | > 100 µM
Cc1ccc(Cl)cc1-n1c(C)nc2c(cnn2-c2ccnc3c(C(F)(F)F)cccc23)c1=O | > 100 µM | > 100 µM | > 100 µM | > 100 µM | > 100 µM | > 100 µM | > 100 | > 100 µM | > 100 µM | > 100 µM | > 100 µM | > 100 µM | > 100 µM | > 100 µM | > 100 µM | > 100 µM | > 100 µM | > 100 µM | > 100 µM | > 100 µM
